Measurements as given in patent publication EP1984353B1, “AURORA KINASE MODULATORS AND METHOD OF USE” (Amgen, Inc, priority 2006, dated 2007).
pIC50: −log10 of the molar value. Read-outs that look alike come from different tables or passages of the source.

Experiments:
AuroraA-TPX2 = target: T1, AuroraA-TPX2 (Homo sapiens, UniProt O14965); assay: AuroraA-TPX2 Homogeneous Time Resolved Fluorescent (HTRF) kinase assay; type: biochemical; conditions: average, read-out: AurA/TP X2_ IC50_IP (Avg)
T1 construct: 20 µL of AuroraA-TPX2 KD GST; GST
T1 sequence (O14965 133-383 limits assumed): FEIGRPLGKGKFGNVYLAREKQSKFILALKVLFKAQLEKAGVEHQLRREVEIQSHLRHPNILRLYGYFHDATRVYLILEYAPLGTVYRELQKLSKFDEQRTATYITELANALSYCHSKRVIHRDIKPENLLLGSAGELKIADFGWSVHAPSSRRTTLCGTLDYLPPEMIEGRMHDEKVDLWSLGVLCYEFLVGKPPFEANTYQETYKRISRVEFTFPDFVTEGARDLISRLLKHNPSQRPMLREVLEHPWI
T1 sequence (Q9ULW0 1-43 partner limits assumed): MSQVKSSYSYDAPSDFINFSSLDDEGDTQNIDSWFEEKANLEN
Outline: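 HTRF read-out: europium anti-phosphoPLK antibody (0.02 nM) plus streptavidin-APC detect phosphorylated biotin-PLK after EDTA stop and overnight equilibration. Kinase step runs about 120 min with Aurora-A/TPX2, ATP and roughly 1 µM PLK peptide at pH 7.5 HEPES buffer with Mg2+ and DTT.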

AuroraB = target: T2, AuroraB (Homo sapiens, UniProt Q96GD4); assay: AuroraB Homogeneous Time Resolved Fluorescent (HTRF) kinase assay; type: biochemical; conditions: average, read-out: AurB_ _IC50_IP (Avg)
T2 construct: 20 µL of AuroraB FL His; His
Outline: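 HTRF read-out: after EDTA stop and ~60 min with europium anti-phospho-H3 antibody and streptavidin-APC, 655/615 nm ratio reports phosphorylation. Reaction: 400 pM AuroraB FL His, 23 µM ATP (at Km(app)), 0.1 µM biotin-Histone H3 peptide, 50 mM HEPES pH 7.5, MgCl/MnCl, ~90 min.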

[1] = given as numbers, unit inferred

T2 sequence (Q96GD4 whole entry): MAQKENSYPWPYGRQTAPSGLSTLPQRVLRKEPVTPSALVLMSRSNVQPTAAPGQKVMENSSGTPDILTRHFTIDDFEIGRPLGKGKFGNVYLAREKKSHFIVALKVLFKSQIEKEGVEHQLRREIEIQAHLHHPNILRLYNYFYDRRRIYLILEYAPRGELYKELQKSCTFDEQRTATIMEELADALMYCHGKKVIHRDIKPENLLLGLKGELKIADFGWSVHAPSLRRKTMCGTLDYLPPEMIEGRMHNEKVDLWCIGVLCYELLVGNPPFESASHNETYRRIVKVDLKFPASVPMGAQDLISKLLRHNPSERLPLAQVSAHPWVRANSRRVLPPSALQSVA

Compound	pIC50 (AuroraA-TPX2; given as class symbols)	pIC50 (AuroraB; given as class symbols)	pIC50 (AuroraA-TPX2; [1])	pIC50 (AuroraB; [1])
Cc1csc(-c2nnc(Nc3ccc(Oc4ncccc4-c4ccnc(NCCCO)n4)cc3)c3ccccc23)n1 [compound 359, 3-((4-(2-((4-((4-(4-methyl-1,3-thiazol-2-yl)-1-phthalazinyl)amino)phenyl)oxy)-3-pyridinyl)-2-pyrimidinyl)amino)-1-propanol]	≥ 7.00	≥ 7.00		
C[C@H](O)c1cccc(-c2nnc(Nc3ccc(Oc4ncccc4-c4ccnc(N)n4)cc3)c3ccccc23)c1 [compound 360, (1S)-1-(3-(4-((4-((3-(2-amino-4-pyrimidinyl)-2-pyridinyl)oxy)phenyl)amino)-1-phthalazinyl)phenyl)ethanol]	≥ 7.00	≥ 7.00		
C[C@@H](O)c1cccc(-c2nnc(Nc3ccc(Oc4ncccc4-c4ccnc(N)n4)cc3)c3ccccc23)c1 [compound 361, (1R)-1-(3-(4-((4-((3-(2-amino-4-pyrimidinyl)-2-pyridinyl)oxy)phenyl)amino)-1-phthalazinyl)phenyl)ethanol]	≥ 7.00	≥ 7.00		
Nc1nccc(-c2cccnc2Oc2ccc(Nc3nnc(-c4cccc(CCCOP(=O)(O)O)c4)c4ccccc34)cc2)n1 [compound 362, 3-(3-(4-((4-((3-(2-amino-4-pyrimidinyl)-2-pyridinyl)oxy)phenyl)amino)-1-phthalazinyl)phenyl)propyl dihydrogen phosphate]	≥ 7.00	≥ 7.00		
Nc1nccc(-c2cccnc2Oc2ccc(Nc3nnc(-c4cccc(O)c4)c4ccccc34)cn2)n1 [compound 363, 3-(4-((6-((3-(2-amino-4-pyrimidinyl)-2-pyridinyl)oxy)-3-pyridinyl)amino)-1-phthalazinyl)phenol]	≥ 7.00	≥ 7.00		
Nc1nccc(-c2cccnc2Oc2ccc(Nc3nnc(-c4ccccc4O)c4ccccc34)cc2)n1 [compound 364, 2-(4-((4-((3-(2-amino-4-pyrimidinyl)-2-pyridinyl)oxy)phenyl)amino)-1-phthalazinyl)phenol]	6.30 to 7.00	≥ 7.00		
Nc1nccc(-c2cccnc2Oc2ccc(Nc3nnc(-c4ccccc4O)c4ccccc34)cn2)n1 [compound 365, 2-(4-((6-((3-(2-amino-4-pyrimidinyl)-2-pyridinyl)oxy)-3-pyridinyl)amino)-1-phthalazinyl)phenol]			7.56	7.95
Nc1nccc(-c2cccnc2Oc2ccc(Nc3nnc(-c4cccc(OP(=O)(O)O)c4)c4ccccc34)cc2)n1 [compound 366, 3-(4-((4-((3-(2-amino-4-pyrimidinyl)-2-pyridinyl)oxy)phenyl)amino)-1-phthalazinyl)phenyl dihydrogen phosphate]	6.30 to 7.00	6.30 to 7.00		
OCCCNc1nccc(-c2cccnc2Oc2ccc(Nc3nnc(-c4ccccc4)c4ccccc34)cn2)n1 [compound 367, 3-((4-(2-((5-((4-phenyl-1-phthalazinyl)amino)-2-pyridinyl)oxy)-3-pyridinyl)-2-pyrimidinyl)amino)-1-propanol]	≥ 7.00	≥ 7.00		
Nc1nccc(-c2cccnc2Oc2ccc(Nc3nnc(-c4ccccc4OP(=O)(O)O)c4ccccc34)cc2)n1 [compound 368, 2-(4-((4-((3-(2-amino-4-pyrimidinyl)-2-pyridinyl)oxy)phenyl)amino)-1-phthalazinyl)phenyl dihydrogen phosphate]	5.60 to 6.30	5.60 to 6.30		
C[C@H](O)c1cccc(-c2nnc(Nc3ccc(Oc4ncccc4-c4ccnc(N)n4)nc3)c3ccccc23)c1 [compound 369, (1S)-1-(3-(4-((6-((3-(2-amino-4-pyrimidinyl)-2-pyridinyl)oxy)-3-pyridinyl)amino)-1-phthalazinyl)phenyl)ethanol]	≥ 7.00	≥ 7.00		
Cc1cc(-c2cccc(CO)c2)nnc1Nc1ccc(Oc2ncccc2-c2ccnc(N)n2)cc1 [compound 370, (3-(6-((4-((3-(2-amino-4-pyrimidinyl)-2-pyridinyl)oxy)phenyl)amino)-5-methyl-3-pyridazinyl)phenyl)methanol]	≥ 7.00	≥ 7.00		
